Reference: publication PMC6302903, “Protein and Chemical Determinants of BL-1249 Action and Selectivity for K2P Channels” (ACS Chemical Neuroscience, 2018)

Legend:
K2P2.1(TREK-1) G137I = target: T1, K2P2.1(TREK-1) G137I (Mus musculus, UniProt P97438, G152I); experiment: TEVC of C-type gate activating mutant G137I; format: cell-based; conditions: Xenopus oocytes
T1 construct: expressed in transfected cells; host or cells: Xenopus laevis oocytes, mRNA injected
Excerpt: Diverse types of physical and chemical stimuli activate K2P2.1(TREK-1) by stabilizing the C-type gate and switching the channel into a “leak” mode that is characterized by a loss of outward rectification of the potassium current.[6],[8] Accordingly, we used inside-out patch clamp experiments of K2P2.1(TREK-1) expressed in HEK293 cells to test whether BL-1249 acts on the C-type gate. […] Together with previous single point concentration studies showing the insensitivity of K2P2.1(TREK-1) W275S in mammalian cells,[40] our data provide definitive evidence that BL-1249 activates K2P2.1(TREK-1) by stimulating the C-type gate. […]
(§1) Xenopus laevis oocytes were harvested in accordance with UCSF IACUC protocol AN129690 and digested in calcium-free ND-96 (96 mM NaCl, 2 mM KCl, 3.8 mM MgCl2) immediately following harvest, as previously described.[6],[10] […] Defolliculated stage V–VI oocytes were injected with 0.2–6.0 ng of mRNA in 50 nL, and currents were recorded 24–48 h after injection. mRNA was synthesized from plasmid DNA using mMessage mMachine Kit (T7 promoter, Ambion, Life Technologies) and purified using RNEasy Kit (Qiagen). […] Once stabilized basal currents were recorded, compounds were perfused at various concentrations in standard ND96 and currents were allowed to increase to stabilization before recording final current. […]

K2P5.1(TASK-2) = target: T2, K2P5.1(TASK-2) (Mus musculus, UniProt F6V9U5); experiment: TEVC of K2P5.1(TASK-2) in Xenopus oocytes; format: cell-based; conditions: concentrations up to the solubility limit (∼80 μM)
T2 construct: expressed in transfected cells; host or cells: Xenopus laevis oocytes (mRNA injection, pGEMHE/pMO)
T2 sequence (F6V9U5 1-502): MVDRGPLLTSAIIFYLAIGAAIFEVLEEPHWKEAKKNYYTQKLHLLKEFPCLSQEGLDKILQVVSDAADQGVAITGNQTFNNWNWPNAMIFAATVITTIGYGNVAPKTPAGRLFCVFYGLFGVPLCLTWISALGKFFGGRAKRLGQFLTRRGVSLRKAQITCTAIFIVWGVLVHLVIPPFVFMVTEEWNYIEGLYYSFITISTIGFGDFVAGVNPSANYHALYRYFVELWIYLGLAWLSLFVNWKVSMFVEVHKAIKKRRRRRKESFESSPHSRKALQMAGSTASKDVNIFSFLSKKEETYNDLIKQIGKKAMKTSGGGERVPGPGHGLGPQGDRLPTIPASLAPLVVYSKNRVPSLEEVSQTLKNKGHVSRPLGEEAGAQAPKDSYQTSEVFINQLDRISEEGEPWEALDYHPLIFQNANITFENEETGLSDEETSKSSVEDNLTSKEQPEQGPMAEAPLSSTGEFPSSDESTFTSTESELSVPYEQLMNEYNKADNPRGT
Description: BL-1249 activates K2P2.1(TREK-1)[18],[40] and K2P10.1(TREK-2),[7] but its effects on other K2P channels have not been characterized. […] In order to test if the original 10 μM assay had missed BL-1249 effects in other K2P channels, we tested concentrations of BL-1249 up to the solubility limit (∼80 μM) against the other K2P subfamily representatives. […]
as §1, with “current. Fold activation upon compound application is expressed as I/I0 (0 mV), derived from the current at 0 mV in the presence of compound divided by the basal current at 0 mV in standard ND96 without compound. Data were analyzed and plotted using Graphpad Prism Version 5 (GraphPad Software, San Diego California USA, www.graphpad.com).” for “current.”

T1 sequence (P97438 1-411 isoform P97438-2 G137I): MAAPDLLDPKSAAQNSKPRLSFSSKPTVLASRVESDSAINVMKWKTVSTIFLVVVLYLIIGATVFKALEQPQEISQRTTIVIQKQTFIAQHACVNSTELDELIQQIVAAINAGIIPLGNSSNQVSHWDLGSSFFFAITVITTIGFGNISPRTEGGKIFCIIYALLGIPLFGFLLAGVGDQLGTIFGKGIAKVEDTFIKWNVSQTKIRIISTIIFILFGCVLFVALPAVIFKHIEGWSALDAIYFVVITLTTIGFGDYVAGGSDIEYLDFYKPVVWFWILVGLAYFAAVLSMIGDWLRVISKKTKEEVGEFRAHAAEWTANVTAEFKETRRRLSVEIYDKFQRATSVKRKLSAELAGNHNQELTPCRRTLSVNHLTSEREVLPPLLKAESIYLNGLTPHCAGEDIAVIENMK

## c1ccc(-c2nnn[nH]2)c(Nc2cccc3c2CCCC3)c1 [BL-1249, (5,6,7,8-tetrahydro-naphthalen-1-yl)-[2-(1H-tetrazol-5-yl)-phenyl]-amine]
K2P2.1(TREK-1) G137I
  EC50: > 60 µM
  sensitivity of K2P2.1(TREK-1) G137I to compound: insensitive
K2P5.1(TASK-2)
  activation of K2P5.1(TASK-2): failed to find evidence for activation
